Results on 13 molecules are retold here after ChEMBL document CHEMBL1201862, “PubChem BioAssay data set” (2004).

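These data come from cells grown in 96-well plates and exposed to compound for 48 hours at five concentrations. Abbreviation: GI50, concentration required for 50% inhibition of growth.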 Active and inactive are the calls of the source. Rule as the data show it: active = GI50 up to about 1.1 µM and inactive = higher.

Assay in all cases: inhibition of tumour cell growth, NCI panel, 48 h
Test [1] deals with HCT-15.
The test system of test [2] is LOX IMVI.
For test [3], the system named is COLO 205.
Test [4] has as its system HCC 2998.
For test [5], the system named is IGROV-1.
Test [6] concerns NCI-H226.
For test [7], the system named is HOP-92.
The test system of test [8] is SK-MEL-28.
The subject of test [9] is UO-31.
Test [10] relates to EKVX.
For test [11], the system named is TK-10.
Test [12] has as its system K562.
Test [13] concerns RPMI-8226.
For test [14], the system named is CAKI-1.
Test [15] has as its system SK-MEL-5.
The subject of test [16] is A549.
Test [17] has as its system HOP-62.
Test [18] relates to NCI-H522.

For `CC1OC(n2cc(I)c(=O)[nH]c2=O)C=CC1=O` (stereo not drawn), the GI50 is 17.1 µM in test [1]; 6.47 µM (inactive) in test [2]; 17 µM (inactive) in test [3]; 17.5 µM (inactive) in [4]; 20.4 µM (inactive) in [5]; 17.6 µM (inactive) in [6]. For the same molecule, the GI50 in test [7] is 19.7 µM (inactive); in test [8], 15.7 µM (inactive); in test [9], 16.9 µM (inactive); in test [10] it was 17.5 µM (inactive); in test [11], 18.6 µM (inactive); in [12], 3.92 µM (inactive). Moreover, the GI50 in test [13] is 13.9 µM (inactive); in [14], 16 µM (inactive); in [15], 16 µM (inactive); in [16], 26.7 µM (inactive); in test [17], 18.5 µM (inactive).

Consider `CCOC(=O)C(C(=O)OCC)=C1N[C@H](C(=O)OCC)CS1`, for which the GI50 in [1] was over 100 µM; in test [2], > 100 µM (inactive); in test [3], > 100 µM (inactive); in [4], > 100 µM (inactive); in test [5], > 100 µM (inactive); in [18], > 100 µM (inactive). In addition, the GI50 was 80.5 µM (inactive) in test [6]; > 100 µM (inactive) in [8]; > 100 µM (inactive) in [9]; > 100 µM (inactive) in test [10]; > 100 µM (inactive) in [12]; > 100 µM (inactive) in [13]. Besides, the GI50 in test [14], in test [15], in test [16] and in test [17] was > 100 µM (inactive) throughout.

Take `CN(C(=N)c1ccccc1)c1ccccc1`: the GI50 in [1] is over 100 µM; in test [2], 84.7 µM (inactive); in test [3], > 100 µM (inactive); in [4], > 100 µM (inactive); in test [5] it was > 100 µM (inactive); in test [6], > 100 µM (inactive). Also, the GI50 was 51.5 µM (inactive) in [7]; > 100 µM (inactive) in test [8]; > 100 µM (inactive) in [9]; > 100 µM (inactive) in [10]; > 100 µM (inactive) in [11]; > 100 µM (inactive) in test [12]. The GI50 in test [13], in [15] and in test [16] was > 100 µM (inactive) in each case.

As for `COC(=O)C1=CC2OC13CC1CCC3(C2=O)C1(C)C` (stereo not drawn), the GI50 was 5.36 µM in [1]; 15.5 µM (inactive) in test [3]; 14.5 µM (inactive) in [4]; 16.7 µM (inactive) in [5]; 2.34 µM (inactive) in [18]; 17.1 µM (inactive) in test [6]. The GI50 in [9] was 5.89 µM (inactive); in test [10] it was > 10 µM (inactive); in test [11], 10.4 µM (inactive); in test [12] it was 11.2 µM (inactive); in [13] it was 15.1 µM (inactive); in [14] it was 2.2 µM (inactive). Also, the GI50 was 15.8 µM (inactive) in test [15], 31.4 µM (inactive) in test [16] and 23.4 µM (inactive) in [17].

With `COc1cc2c(cc1OC)/C(=C\c1ccccc1N)C(=O)OC2`, the GI50 in [1] was 7.19 µM; in test [2] it was 2.11 µM (inactive); in test [3], 12 µM (inactive); in [4], 23.3 µM (inactive); in test [5], 18.6 µM (inactive); in test [18], 1.56 µM (inactive). The GI50 is 12.4 µM (inactive) in test [7]; 17 µM (inactive) in test [8]; 15.5 µM (inactive) in [9]; 25 µM (inactive) in test [10]; 20.6 µM (inactive) in test [11]; 3.02 µM (inactive) in [12]. The GI50 in test [13] was 1.84 µM (inactive); in [14], 12 µM (inactive); in test [15], 17.8 µM (inactive); in test [16], 32.1 µM (inactive); in test [17], 23.3 µM (inactive).

On to `O=C(CSc1nnc(Cc2ccccc2)o1)Nc1cccc(Cl)c1`, for which the GI50 in test [1] is 98.4 µM; in [2], 64.4 µM (inactive); in test [3], > 100 µM (inactive); in test [4], 96.6 µM (inactive); in test [5], > 100 µM (inactive); in test [18], 40.9 µM (inactive). Moreover, the GI50 in [6] was > 100 µM (inactive); in test [8], > 100 µM (inactive); in test [9] it was > 100 µM (inactive); in test [10] it was > 100 µM (inactive); in [11], > 100 µM (inactive); in test [12], 46.6 µM (inactive). Also, the GI50 in [13] was 72.4 µM (inactive); in test [14], 92.5 µM (inactive); in test [15], 76.7 µM (inactive); in test [16], > 100 µM (inactive); in test [17], > 100 µM (inactive).

Turning to `CC(C)C(N)=O` [ISOBUTYRAMIDE], the GI50 was over 5000 µM in [1]; > 5000 µM (inactive) in [2]; > 5000 µM (inactive) in test [3]; > 5000 µM (inactive) in test [5]; > 5000 µM (inactive) in test [18]; > 5000 µM (inactive) in test [6]. For the same molecule, the GI50 in test [7], in test [8], in [9], in test [11], in [12] and in test [13] was > 5000 µM (inactive) in each case. The GI50 in [14], in [15], in [16] and in test [17] was > 5000 µM (inactive) in each case.

For `CCCCCCCCCCCCNC(=S)OCCCC`, the GI50 in test [1] is over 100 µM; in test [2] it was 15.8 µM (inactive); in [4] it was > 100 µM (inactive); in [5], > 100 µM (inactive); in test [18], > 100 µM (inactive); in test [7], > 100 µM (inactive). For the same molecule, the GI50 in test [8] was 76.6 µM (inactive); in test [9], > 100 µM (inactive); in [10], > 100 µM (inactive); in test [11], 19.7 µM (inactive); in test [12] it was 65.3 µM (inactive); in test [13], 15.7 µM (inactive). The GI50 in test [14] was > 100 µM (inactive); in test [15] it was 81.3 µM (inactive); in test [16], > 100 µM (inactive); in test [17], > 100 µM (inactive).

On to `O=C(O)CCSC(=O)Nc1ccccc1Cl`, for which the GI50 in test [1] is over 100 µM; in test [2] it was > 100 µM (inactive); in test [3] it was > 100 µM (inactive); in [4] it was > 100 µM (inactive); in [5], > 100 µM (inactive); in test [6], > 100 µM (inactive). The GI50 in test [7], in test [8], in test [9], in test [10], in test [11] and in [12] was > 100 µM (inactive) throughout. For the same molecule, the GI50 in [13], in test [14], in test [15], in test [16] and in [17] was > 100 µM (inactive) each time.

For the molecule `COC(=O)C1=CC2C(=O)OC1C1C(=O)NC(=O)C21` (stereo not drawn), the GI50 in test [2], in test [3], in [4], in test [5], in test [18] and in [7] was > 100 µM (inactive) in each case. The GI50 in [8], in test [9], in test [11], in test [12], in test [13] and in test [14] was > 100 µM (inactive) each time. The GI50 in test [15], in test [16] and in [17] was > 100 µM (inactive) throughout.

Consider `CC1=C(c2cc(C(=O)Nc3nccs3)nc(NC#N)n2)Sc2ccccc2N1`, for which the GI50 was 65.3 µM in test [1]; > 100 µM (inactive) in test [3]; > 100 µM (inactive) in test [5]; > 100 µM (inactive) in test [18]; > 100 µM (inactive) in test [6]; > 100 µM (inactive) in [7]. Moreover, the GI50 in [8], in test [9], in [10], in [11], in test [12] and in test [13] was > 100 µM (inactive) each time. The GI50 in [14], in test [15], in test [16] and in [17] was > 100 µM (inactive) each time.

Take `COC(=O)CC(CC(=O)C(=O)OC)C(=O)OC` (stereo not drawn): the GI50 in test [1] was over 100 µM; in test [2], > 100 µM (inactive); in test [3], > 100 µM (inactive); in [4], > 100 µM (inactive); in test [5] it was > 100 µM (inactive); in [6], > 100 µM (inactive). Also, the GI50 in test [7], in [8], in [9], in test [10], in test [11] and in test [12] was > 100 µM (inactive) in each case. In addition, the GI50 in test [13], in test [14], in [15], in test [16] and in test [17] was > 100 µM (inactive) each time.

For `O=C(CSc1nnc(-c2ccc(/N=C\c3ccc(Cl)cc3)cc2)o1)Nc1ccccc1Cl`, the GI50 in [1] is over 100 µM; in test [2] it was > 100 µM (inactive); in [3], > 100 µM (inactive); in test [18], > 100 µM (inactive); in test [6] it was > 100 µM (inactive); in test [8], > 100 µM (inactive). Moreover, the GI50 in [9], in [10], in test [11], in test [12], in test [13] and in [15] was > 100 µM (inactive) each time. Further, the GI50 in test [16] and in [17] was > 100 µM (inactive) each time.
